Experimental data from paper PMC2796824 (Journal of biomolecular screening, 2009).
Values joined by “and” are separate entries in the source; they are usually repeats but may differ in a detail not shown here. Identical values can stand only once.

Experiments:
[1] = target: T1, MBP-MshC (Mycobacterium tuberculosis, UniProt P9WJM9); test: Confirmatory assay: CGI production by fluorescence-detected HPLC; format: biochemical
[2] = target: T1, MBP-MshC; test: MshC coupled luminescent assay; format: biochemical
[3] = target: T1, MBP-MshC; test: Mode of inhibition of dequalinium; format: biochemical
[4] = target: MBP (Escherichia coli, UniProt P0AEX9); test: Isothermal titration calorimetry with MBP tag alone; format: binding; conditions: ITC, 1-site model, 25 °C
[5] = target: T1, MBP-MshC; test: Isothermal titration calorimetry with MBP-MshC; format: binding
[6] = test system: N[C@@H](CS)C(=O)O; test: purified protein, by the assay type
[7] = IC50, quantitative CGI-HPLC confirmatory assay

T1 sequence (P9WJM9 whole entry, looked up): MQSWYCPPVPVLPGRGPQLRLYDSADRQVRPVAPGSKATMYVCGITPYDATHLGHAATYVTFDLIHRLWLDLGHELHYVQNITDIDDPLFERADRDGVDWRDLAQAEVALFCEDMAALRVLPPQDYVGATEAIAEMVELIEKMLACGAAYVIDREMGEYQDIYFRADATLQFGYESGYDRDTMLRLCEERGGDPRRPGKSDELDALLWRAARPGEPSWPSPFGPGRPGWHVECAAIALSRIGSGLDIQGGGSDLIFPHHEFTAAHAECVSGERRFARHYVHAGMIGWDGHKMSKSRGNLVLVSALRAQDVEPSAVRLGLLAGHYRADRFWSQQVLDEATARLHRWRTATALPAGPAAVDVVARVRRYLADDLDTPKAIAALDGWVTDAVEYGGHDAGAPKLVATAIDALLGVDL

Compound `Cc1cc(N)c2ccccc2[n+]1C` [1a, 1-methyl 4-aminoquinaldinium iodide] has an IC50 [1, 7] of 830 µM.
`Nc1ncnc2c1ncn2[C@@H]1O[C@H](COS(=O)(=O)NC(=O)[C@@H](N)CS)[C@@H](O)[C@H]1O` [CysSA, 5′-O-[N-(L-cysteinyl)sulfamoyl] adenosine] showed an IC50 [2] of 0.24 ± 0.001 µM.
`Cc1cc(N)c2ccccc2[n+]1CCCCCCCCCC[n+]1c(C)cc(N)c2ccccc21` [compound 1, dequalinium chloride] was tested, and the IC50 [1, 7] was 24 µM and ~24 µM, the mode of inhibition ([3]; with respect to ATP (varied 31.3 to 4000 μM)) was “AT P-competitive inhibitor” and the mode of inhibition ([3]; with respect to GI (varied 34-1100 μM)) was “synergy”. For the same compound, the Kd [4] was 8.5 µM and 7 to 8.5 µM and the Kd [5] was 7.1 ± 0.8 µM.
Work on `C[n+]1ccc(Nc2ccc(NC(=O)c3ccc(Nc4cc[n+](C)c5ccc([N+](=O)[O-])cc45)cc3[N+](=O)[O-])cc2)cc1` [compound 2] yielded an IC50 ([1]; quantitative CGI-HPLC confirmatory assay) of ~500 µM.
In the case of “MBP-MshC (Mycobacterium tuberculosis H37Rv)”, the Km [6] is reported as 140 ± 40 µM and the Vmax [6] is reported as 85 ± 7 nmol/min/mg.
